# Laboratory results as given in PMC8222254, “Self-assembly of an anion receptor with metal-dependent kinase inhibition and potent in vitro anti-cancer properties” (Nature Communications, 2021).
# Several values for one entry are separate records, joined by “and”; a condition that tells them apart may be missing. Equal entries are not always repeated. Where two headings read alike, the source gives them in different places.
# Tests used:
# Experiment in all cases: Chemosensitivity, 96 h continuous exposure, MTT assay
# Assay type in all cases: cell-based, human
# A549 = tested on: A549
# Text: (§1) All cell lines were purchased from and maintained as monolayers as described by the American Type Culture Collection with the exception of the p53^+/+ and p53^−/− isogenic clones of HCT116 human colorectal adenocarcinoma cells which were a kind gift from Professor Bert Vogelstein[54]. GBM1 cells were established from a primary GBM tumour by Heiko Wurdak and colleagues[32],[33]. Non-cancerous adult brain neural progenitor (NP1) cells were derived from a patient undergoing surgery to treat epilepsy[32],[33]. Cell culture and growth media for NP1 and GBM1 cells were as described[32],[33]. The response of cells following a continuous 96-h exposure to test compounds and platinates was determined using the MTT assay. Potency was recorded as the IC50 and the selectivity index (SI) was defined as the ratio of IC50 values for non-cancer to cancer cell lines with values >1 representing selectivity for cancer cells as opposed to non-cancer cells.
# (§2) All cell lines used were maintained at low passage in antibiotic-free media. HT29, DLD-1, HCT116 p53^+/+ and HCT116 p53^−/− are all colorectal adenocarcinoma cell lines derived from different individuals and harbour different combinations of oncogenic lesions (except for the HCT116 isogenic cancer cell clones that are genetically identical except for p53 status). PSN-1, BxPC-3 and MiaPaCa2 are pancreatic carcinoma cell lines and A549 and H460 are lung carcinoma cell lines. HT29, DLD-1, PSN-1, BxPC-3, A549 and H460 cell lines were cultured in RPMI-1640 growth media (Sigma) containing 2 mM L-glutamine, 1 mM sodium pyruvate and 10% foetal bovine serum (FBS). HCT116 (p53^+/+ and p53^−/−) and MiaPaCa2 cell lines were cultured in Dulbecco’s Modified Eagle’s Medium (Sigma), 2 mM L-glutamine and 10% FBS. The ARPE-19 retinal epithelial non-cancer cell line was cultured in DMEM/F12 media (Gibco), 2 mM L-glutamine, 1 mM sodium pyruvate and 10% FBS. The MCF10A non-cancerous human breast epithelial cell line was cultured in Minimal Essential Media Eagle (Sigma), 2 mM L-glutamine, 1 mM sodium pyruvate, 10% FBS and 1x non-essential amino acids (NEAA). NP1 and GBM1 cells were cultured on plasticware coated with poly-L-ornithine (5 µg/ml) and laminin (2.4 µg/ml)[32],[33]. NP1 cells were grown in DMEM/F12 media (Gibco) supplemented with 5% FBS, 20 ng/ml hFGF, 20 ng/ml rhEGF, 0.5x B-27 supplement (Gibco), 0.5x N-2 supplement (Gibco) and 1x GLUTAMAX (Gibco). GBM1 cells were cultured in Neurobasal media (Gibco) supplemented with 40 ng/ml hFGF, 40 ng/ml rhEGF, 0.5x B-27 supplement (Gibco) and 0.5x N-2 supplement (Gibco).
# (§3) [L2(Metal)3]^6+ and all the other self-assembling complexes were freshly formed by adding DMSO to individual components and mixing together by pipetting. These were then further diluted in cell culture media such that the final DMSO concentration that cells were exposed to was 0.2% (vehicle control). Cisplatin, oxaliplatin and carboplatin were dissolved in phosphate buffered saline. Cell lines were seeded into 96 well plates at 2 × 10^3 cells per well and incubated overnight at 37 °C. GBM1 cancer stem-like cells were seeded at 3 × 10^3 cells per well and NP1 neural progenitors were seeded at 1.5 × 10^3 cells per well. The following day, media was removed and replaced with fresh media containing test compounds at a range of concentrations. Cells were incubated with test compounds for a further 96 h after which the media was removed and replaced with fresh media (200 μl/well). MTT was added (20 μl at 5 mg/ml) and cells were incubated for a further 4 h. Media and MTT were removed and formazan crystals were dissolved in 150 μl of DMSO and the absorbance of the resulting solution determined at 540 nm. Dose response curves were constructed, and the concentration required to reduce cell growth by 50% (IC50) determined.
# DLD-1 = tested on: DLD-1
# Text: as §1, §2, §3
# MiaPaCa2 = tested on: MiaPaCa2
# Text: as §1, §2, §3
# MCF10A non-cancer cells = tested on: MCF10A non-cancer cells
# Text: as §1, §2, §3
# BxPC3 = tested on: BxPC3
# Text: as §1, §2, §3
# HCT116 p53+/+ = tested on: HCT116 p53+/+
# Text: as §1, §2, §3
# ARPE-19 non-cancer cells = tested on: ARPE-19 non-cancer cells
# Text: as §1, §2, §3
smiles,measurement,setting,value
O=S(=O)([O-])[O-].[Cu+2].[Cu+2].[Cu+2].c1ccc(-c2csc(NCCN(CCNc3nc(-c4ccccn4)cs3)CCNc3nc(-c4ccccn4)cs3)n2)nc1.c1ccc(-c2csc(NCCN(CCNc3nc(-c4ccccn4)cs3)CCNc3nc(-c4ccccn4)cs3)n2)nc1 [[L2Cu3(SO4)]4+],IC50,"A549; A549, mean of replicates, read-out: Mean IC50",680 nM
same,IC50,"A549; A549, read-out: Mean IC50 values",680 nM
same,IC50,"A549; A549, single replicate, read-out: IC50 values for each replicate",747 nM and 620 nM and 667 nM and 685 nM
same,Selectivity index (ARPE19),A549; IC50 ARPE-19 / IC50 A549,176.93
same,Selectivity index (MCF10A),A549; IC50 MCF10A / IC50 A549,73.14
same,"Relative potency (+ anion to no anion), Ratio + anion:no anion","A549; ratio of IC50, A549",2.92
same,"Selectivity indices relative to ARPE-19, Ratio + anion:no anion","A549; ratio of SI (ARPE-19), A549",0.783
same,"Selectivity indices relative to MCF10A, Ratio + anion:no anion","A549; ratio of SI (MCF 10A), A549",0.353
same,IC50,"DLD-1; DLD-1, mean of replicates, read-out: Mean IC50",650 nM
same,IC50,"DLD-1; DLD-1, read-out: Mean IC50 values",650 nM
same,Selectivity index (ARPE19),DLD-1; IC50 ARPE-19 / IC50 DLD-1,185.09
same,Selectivity index (MCF10A),DLD-1; IC50 MCF10A / IC50 DLD-1,76.51
same,"Relative potency (+ anion to no anion), Ratio + anion:no anion","DLD-1; ratio of IC50, DLD-1",4.92
same,"Selectivity indices relative to ARPE-19, Ratio + anion:no anion","DLD-1; ratio of SI (ARPE-19), DLD-1",0.464
same,"Selectivity indices relative to MCF10A, Ratio + anion:no anion","DLD-1; ratio of SI (MCF 10A), DLD-1",0.209
same,Selectivity index (ARPE19),MiaPaCa2; IC50 ARPE-19 / IC50 MiaPaCa2,2.28
same,Selectivity index (MCF10A),MiaPaCa2; IC50 MCF10A / IC50 MiaPaCa2,0.94
same,IC50,"MiaPaCa2; MiaPaCa2, mean of replicates, read-out: Mean IC50",52700 nM
same,IC50,"MiaPaCa2; MiaPaCa2, read-out: Mean IC50 values",52700 nM
same,IC50,"MiaPaCa2; MiaPaCa2, single replicate, read-out: IC50 values for each replicate",63700 nM and 63600 nM and 47200 nM and 43500 nM and 49700 nM and 48300 nM
same,"Relative potency (+ anion to no anion), Ratio + anion:no anion","MiaPaCa2; ratio of IC50, MiaPaCa2",4.46
same,"Selectivity indices relative to ARPE-19, Ratio + anion:no anion","MiaPaCa2; ratio of SI (ARPE-19), MiaPaCa2",0.512
same,"Selectivity indices relative to MCF10A, Ratio + anion:no anion","MiaPaCa2; ratio of SI (MCF 10A), MiaPaCa2",0.231
same,IC50,"MCF10A non-cancer cells; MCF10A non-cancer, read-out: Mean IC50 values",49700 nM
same,IC50,"MCF10A non-cancer cells; MCF10A, mean of replicates, read-out: Mean IC50",49700 nM
same,IC50,"MCF10A non-cancer cells; MCF10A, single replicate, read-out: IC50 values for each replicate",53200 nM and 42900 nM and 45100 nM and 57700 nM
same,"Relative potency (+ anion to no anion), Ratio + anion:no anion","MCF10A non-cancer cells; ratio of IC50, MCF10A",1.03
same,IC50,"BxPC3; BXPC3, mean of replicates, read-out: Mean IC50",491 nM
same,IC50,"BxPC3; BXPC3, read-out: Mean IC50 values",491 nM
same,IC50,"BxPC3; BXPC3, single replicate, read-out: IC50 values for each replicate",544 nM and 586 nM and 260 nM and 478 nM and 588 nM
same,Selectivity index (ARPE19),BxPC3; IC50 ARPE-19 / IC50 BXPC3,245.03
same,Selectivity index (MCF10A),BxPC3; IC50 MCF10A / IC50 BXPC3,101.29
same,"Relative potency (+ anion to no anion), Ratio + anion:no anion","BxPC3; ratio of IC50, BXPC3",1.68
same,"Selectivity indices relative to ARPE-19, Ratio + anion:no anion","BxPC3; ratio of SI (ARPE-19), BXPC3",1.364
same,"Selectivity indices relative to MCF10A, Ratio + anion:no anion","BxPC3; ratio of SI (MCF 10A), BXPC3",0.615
same,IC50,"HCT116 p53+/+; HCT116 p53+/+, mean of replicates, read-out: Mean IC50",668 nM
same,IC50,"HCT116 p53+/+; HCT116 p53+/+, read-out: Mean IC50 values",668 nM
same,IC50,"HCT116 p53+/+; HCT116 p53+/+, single replicate, read-out: IC50 values for each replicate",643 nM and 713 nM and 647 nM
same,Selectivity index (ARPE19),HCT116 p53+/+; IC50 ARPE-19 / IC50 HCT116 p53+/+,180.10
same,Selectivity index (MCF10A),HCT116 p53+/+; IC50 MCF10A / IC50 HCT116 p53+/+,74.45
same,"Relative potency (+ anion to no anion), Ratio + anion:no anion","HCT116 p53+/+; ratio of IC50, HCT116 p53+/+",1.35
same,"Selectivity indices relative to ARPE-19, Ratio + anion:no anion","HCT116 p53+/+; ratio of SI (ARPE-19), HCT116 p53+/+",1.697
same,"Selectivity indices relative to MCF10A, Ratio + anion:no anion","HCT116 p53+/+; ratio of SI (MCF 10A), HCT116 p53+/+",0.765
same,IC50,"ARPE-19 non-cancer cells; ARPE-19, mean of replicates, read-out: Mean IC50",120000 nM
same,IC50,"ARPE-19 non-cancer cells; ARPE-19, single replicate, read-out: IC50 values for each replicate",126000 nM and 121000 nM and 113000 nM
same,IC50,"ARPE-19 non-cancer cells; ARPE-19 non-cancer, read-out: Mean IC50 values",120000 nM
same,"Relative potency (+ anion to no anion), Ratio + anion:no anion","ARPE-19 non-cancer cells; ratio of IC50, ARPE-19",2.29
